# Experimental data taken from patent US20250205195A1, “BENZYLOXY-BENZYLAMINYL AMINO ACID DERIVATIVE FOR ADJUSTING TSLP/TSLPR SIGNAL TRANSMISSION” (AMTIXBIO CO., LTD., priority 2021, published 2025).
# Test system: TSLP
# Test: TNF-α-induced TSLP in HaCaT cells (ELISA)
# Format: cell-based, human
# Method: Human keratinocyte HaCaT cells (obtained from the Korean Cell Line Bank) were seeded in a 12-well plate at an initial density of 2×10^5 cells/well and cultured at 37° C. for 16 to 24 hours. FK506 (Sigma), compounds 27 and 29 of the present invention were then added to the HaCaT cell culture medium at final concentrations of 0, 1, 2, 4, and 8 µg/mL, and the cells were cultured at 37° C. for 1 hour. Next, to induce TSLP, the culture medium was treated with TNF-α (Sigma-Aldrich, USA) to a final concentration of 100 ng/mL, and the cells were cultured for an additional 24 hours at 37° C. The culture supernatant was collected, and the amount of induced TSLP from HaCaT cells was determined using an ELISA kit (R&D Systems, USA) according to the manufacturer's instructions. […] Under the same conditions, to compare the TSLP reduction efficiency R.R. (Reduction rate) of compound 27, positive control compound and compound 29, equal amounts of compounds 27, 29 and FK506 (Sigma-Aldrich, USA) were pretreated for 1 hour. The amount of TSLP released into the culture supernatant from HaCaT cells stimulated by TNF-α was quantitatively analyzed and presented in Table 3 and FIG. 3 (c).
# [1] = HaCaT culture supernatant, TNF-α stimulated, 1 h pretreatment, equal amounts of compounds
structure (smiles),measurement,setting,value
"CCC(NC)C(=O)NCc1ccc(OCc2ccc(C(F)(F)F)cc2)cc1 (racemic) [Compound 27, (R)/(S)-2-(methylamino)-N-(4-((4-trifluoromethyl)benzyl)oxy)benzyl)butanamide]",amount of induced TSLP with increasing concentration,"HaCaT cells, 0, 1, 2, 4 and 8 µg/mL, TNF-α 100 ng/mL, 24 h",decreased
same,R.R (Reduction rate) of TSLP,[1],54%
same,TSLP,[1],234 ng/mL
